Test results reported in patent US20090203671A1, “METHOD OF TREATING CANCER” (ABBOTT LABORATORIES, priority 2007, published 2009).

Tests used:
[1] = system: D54MG glioblastoma multiforme cell line; experiment: Cell proliferation assay (CellTiter-Glo), Aurora inhibitor combined with TRAIL; assay type: cell-based; settings: Aurora inhibitor at 1 μM combined with TRAIL, 72 h, FIG. 1
Procedure: Cells were seeded into 96-well plates at 2,500 cells per well and allowed to adhere overnight. Compounds and TRAIL were added the following day, and cells were incubated at 37° C. for 72 h. […] Percent inhibition of viability was determined relative to cells treated with DMSO alone (0.1%). Data are representative of at least three independent experiments with each data point carried out in triplicate.

[2] = system: glioma cell lines where DR5 was induced; experiment: TRAIL-mediated apoptosis in glioma cell lines after polyploidization; assay type: cell-based; settings: glioma cell lines where DR5 was induced following polyploidization
Procedure: To identify candidate apoptosis-sensitizing genes that could be exploited in combination with Aurora kinase inhibitors in malignant glioma, global gene expression analysis in a D54MG glioma cell derivative treated with three Aurora kinases inhibitors chosen for their distinctive selectivities was carried out: MLN8054 (4-((9-chloro-7-(2,6-difluorophenyl)-5H-pyrimidol[5,4-d][2]benzazepin-2-yl)amino)benzoic acid, Aurora-A-selective), AZD1152-HQPA (Aurora-B-selective), and VX-680 (Aurora-A/B). This analysis identified the TRAIL death receptor, DR5, as an apoptosis sensitizing gene induced selectively following inhibition of Aurora-B kinase cancer cells. In glioma cell lines where DR5 was induced following polyploidization, the sensitivity, kinetics, and magnitude of TRAIL-mediated apoptosis were enhanced.

Q: Which “anti-proliferative effect of combination with TRAIL” value (“anti-proliferative effect” below) [1] does the source give for `CCN(CCO)CCCOc1ccc2c(Nc3cc(CC(=O)Nc4cccc(F)c4)[nH]n3)ncnc2c1` [AZD 1152-HQPA] here?
A: The value was “synergistic anti-proliferative effects”.

Q: Which “anti-proliferative effect” value [1] does the source give for `O=C(O)c1ccc(Nc2ncc3c(n2)-c2ccc(Cl)cc2C(c2c(F)cccc2F)=NC3)cc1` [MLN-8054, 4-((9-chloro-7-(2,6-difluorophenyl)-5H-pyrimidol[5,4-d][2]benzazepin-2-yl)amino)benzoic acid] here?
A: The value was “synergistic anti-proliferative effects”.

Q: How did the “anti-proliferative effect” value [1] turn out when `Cc1cc(Nc2cc(N3CCN(C)CC3)nc(Sc3ccc(NC(=O)C4CC4)cc3)n2)n[nH]1` [VX-680/MK0457] was run?
A: The value was “synergistic anti-proliferative effects”.

B1: TRAIL: tumor necrosis factor (TNF)-related apoptosis inducing ligand; binds death receptors DR4 and DR5 (protein, UniProt P50591 1-281, looked up)
Tumor necrosis factor ligand …: MAMMEVQGGPSLGQTCVLIVIFTVLLQSLCVAVTYVYFTNELKQMQDKYSKSGIACFLKEDDSYWDPNDEESMNSPCWQVKWQLRQLVRKMILRTSEETISTVQEKQQNISPLVRERGPQRVAAHITGTRGRSNTLSSPNSKNEKALGRKINSWESSRSGHSFLSNLHLRNGELVIHEKGFYYIYSQTYFRFQEEIKENTKNDKQMVQYIYKYTSYPDPILLMKSARNSCWSKDAEYGLYSIYQGGIFELKENDRIFVSVTNEHLIDMDHEASFFGAFLVG
Q: How did the “sensitivity, kinetics, and magnitude of TRAIL-mediated apoptosis” value [2] turn out when B1 was run?
A: The value was “enhanced”.
